Measured values: the NIST ThermoML archive (doi:10.1021/je101031j)
± gives the expanded uncertainty stated by the source.

Tests used:
[1] = 298.15 K; 101.33 kPa; Liquid; Vibrating tube method
[2] = refractive index (Na D-line) (dimensionless); settings: 298.15 K; 101.33 kPa; Liquid; Standard Abbe refractometry
[3] = excess molar enthalpy (molar enthalpy of mixing); xn = mol fraction of the nth substance listed; settings: 298.15 K, 101.3 kPa, Liquid, Calvet calorimetry

With `CCCO` [propan-1-ol] the mass density [1] was 799.46 ± 0.31 kg/m3 and the refractive index [2] was 1.383 ± 0.0005.
Work on `CCC(C)(C)O` [2-methylbutan-2-ol] + CCO yielded an excess molar enthalpy ([3]; x1 = 0.0898) of -0.0594 ± 0.000645 kcal/mol, an excess molar enthalpy ([3]; x1 = 0.1796) of -0.1128 ± 0.00105 kcal/mol and an excess molar enthalpy ([3]; x1 = 0.2807) of -0.1686 ± 0.00148 kcal/mol. For the same molecule, the excess molar enthalpy ([3]; x1 = 0.3707) was -0.2039 ± 0.00177 kcal/mol, the excess molar enthalpy ([3]; x1 = 0.4607) was -0.2271 ± 0.00194 kcal/mol and the excess molar enthalpy ([3]; x1 = 0.5507) was -0.2326 ± 0.00198 kcal/mol. For the same molecule, the excess molar enthalpy ([3]; x1 = 0.6406) was -0.2178 ± 0.00186 kcal/mol, the excess molar enthalpy ([3]; x1 = 0.7306) was -0.1842 ± 0.0016 kcal/mol and the excess molar enthalpy ([3]; x1 = 0.8205) was -0.1302 ± 0.0012 kcal/mol. It also gave an excess molar enthalpy ([3]; x1 = 0.9103) of -0.0648 ± 0.000693 kcal/mol.
For `CCCCO` [butan-1-ol], the mass density [1] was 805.61 ± 0.31 kg/m3 and the refractive index [2] was 1.3973 ± 0.0005.
In the case of `CCC(C)(C)O` [2-methylbutan-2-ol] + CCCO, the excess molar enthalpy ([3]; x1 = 0.09) is reported as -0.0608 ± 0.000645 kcal/mol, the excess molar enthalpy ([3]; x1 = 0.1801) is reported as -0.1096 ± 0.00103 kcal/mol and the excess molar enthalpy ([3]; x1 = 0.2802) is reported as -0.1568 ± 0.00141 kcal/mol. The excess molar enthalpy ([3]; x1 = 0.3701) was -0.1879 ± 0.00165 kcal/mol, the excess molar enthalpy ([3]; x1 = 0.4599) was -0.2053 ± 0.00177 kcal/mol and the excess molar enthalpy ([3]; x1 = 0.5497) was -0.2041 ± 0.00177 kcal/mol. The excess molar enthalpy ([3]; x1 = 0.6395) was -0.1921 ± 0.00167 kcal/mol, the excess molar enthalpy ([3]; x1 = 0.7292) was -0.1605 ± 0.00143 kcal/mol and the excess molar enthalpy ([3]; x1 = 0.8189) was -0.1131 ± 0.00105 kcal/mol. The excess molar enthalpy ([3]; x1 = 0.9088) was -0.0556 ± 0.000621 kcal/mol.
For `CCC(C)(C)O` [2-methylbutan-2-ol], the mass density [1] was 804.8 ± 0.31 kg/m3 and the refractive index [2] was 1.4019 ± 0.0005.
For `CCC(C)(C)O` [2-methylbutan-2-ol] + CO, the excess molar enthalpy ([3]; x1 = 0.0908) was -0.0613 ± 0.000669 kcal/mol, the excess molar enthalpy ([3]; x1 = 0.1814) was -0.1248 ± 0.00115 kcal/mol and the excess molar enthalpy ([3]; x1 = 0.2731) was -0.1921 ± 0.00167 kcal/mol. It also gave an excess molar enthalpy ([3]; x1 = 0.3644) of -0.2497 ± 0.00213 kcal/mol, an excess molar enthalpy ([3]; x1 = 0.4608) of -0.2868 ± 0.00239 kcal/mol and an excess molar enthalpy ([3]; x1 = 0.5513) of -0.3031 ± 0.00263 kcal/mol. The excess molar enthalpy ([3]; x1 = 0.6416) was -0.2905 ± 0.00239 kcal/mol, the excess molar enthalpy ([3]; x1 = 0.7319) was -0.2556 ± 0.00217 kcal/mol and the excess molar enthalpy ([3]; x1 = 0.8195) was -0.1911 ± 0.00167 kcal/mol. The excess molar enthalpy ([3]; x1 = 0.9101) was -0.1008 ± 0.000956 kcal/mol.
For `CCO` [ethanol], the mass density [1] was 785.22 ± 0.31 kg/m3 and the refractive index [2] was 1.3591 ± 0.0005.
`CCC(C)(C)O` [2-methylbutan-2-ol] + CCCCO gave an excess molar enthalpy ([3]; x1 = 0.09) of -0.064 ± 0.000669 kcal/mol, an excess molar enthalpy ([3]; x1 = 0.1801) of -0.1142 ± 0.00108 kcal/mol and an excess molar enthalpy ([3]; x1 = 0.2702) of -0.1553 ± 0.00139 kcal/mol. For the same molecule, the excess molar enthalpy ([3]; x1 = 0.3707) was -0.1793 ± 0.00158 kcal/mol, the excess molar enthalpy ([3]; x1 = 0.4609) was -0.1912 ± 0.00167 kcal/mol and the excess molar enthalpy ([3]; x1 = 0.551) was -0.1882 ± 0.00165 kcal/mol. For the same molecule, the excess molar enthalpy ([3]; x1 = 0.6412) was -0.1746 ± 0.00153 kcal/mol, the excess molar enthalpy ([3]; x1 = 0.7313) was -0.145 ± 0.00131 kcal/mol and the excess molar enthalpy ([3]; x1 = 0.8198) was -0.102 ± 0.00098 kcal/mol. It also gave an excess molar enthalpy ([3]; x1 = 0.9099) of -0.0509 ± 0.000574 kcal/mol.
Molecule `CCCCCO` [pentan-1-ol] has a mass density [1] of 810.82 ± 0.31 kg/m3 and a refractive index [2] of 1.4086 ± 0.0005.
`CCC(C)(C)O` [2-methylbutan-2-ol] + CCCCCO gave an excess molar enthalpy ([3]; x1 = 0.0899) of -0.0499 ± 0.000574 kcal/mol, an excess molar enthalpy ([3]; x1 = 0.18) of -0.09866 ± 0.000956 kcal/mol and an excess molar enthalpy ([3]; x1 = 0.27) of -0.1359 ± 0.00124 kcal/mol. The excess molar enthalpy ([3]; x1 = 0.3664) was -0.1551 ± 0.00139 kcal/mol, the excess molar enthalpy ([3]; x1 = 0.4566) was -0.1636 ± 0.00146 kcal/mol and the excess molar enthalpy ([3]; x1 = 0.5468) was -0.1618 ± 0.00143 kcal/mol. It also gave an excess molar enthalpy ([3]; x1 = 0.6372) of -0.1515 ± 0.00136 kcal/mol, an excess molar enthalpy ([3]; x1 = 0.7278) of -0.1268 ± 0.00117 kcal/mol and an excess molar enthalpy ([3]; x1 = 0.8185) of -0.09235 ± 0.000908 kcal/mol. It also gave an excess molar enthalpy ([3]; x1 = 0.9091) of -0.0493 ± 0.000574 kcal/mol.
`CO` [methanol] gave a mass density [1] of 786.42 ± 0.31 kg/m3 and a refractive index [2] of 1.3264 ± 0.0005.
